# Experimental data taken from patent US20240116971A1, “NMN AND DERIVATIVES FOR ITS USE IN THE TREATMENT OF DEPRESSION AND/OR ANXIETY IN PATIENTS HAVING A FORM OF PARKINSONISM” (Nuvamid SA, priority 2021, published 2024).
# Test system: patient having MSA
# Experiment: UMSARS questionary before and after 6 months of NMN (beta) in one patient
# Type: in vivo, human
# Description: A person presenting with parkinsonism was given NMN (beta) for 6 months. […] They indicated difficulties to get out of bed in the morning and feeling low and depressed during the day. Administration of 125 mg of NMN (beta) as an oral tablet occurred once per day in the morning. The patient has taken the […] questionary before the beginning of the study (D0) and after 6 months of treatment.
# [1] = 6 months vs D0, daily administration
structure (smiles),measurement,setting,value
"NC(=O)c1ccc[n+]([C@@H]2O[C@H](COP(=O)(O)O)[C@@H](O)[C@H]2O)c1 [beta-NMN, nicotinamide mononucleotide]",items of the UMSARS questionary improved,"6 months vs D0, 125 mg/day oral","improved items 1, 13, 14, 16-18, 22, 26, 28, 29, 34-36"
same,clinical signs related to motricity,[1],"did not improve most of the clinical signs related to motricity apart from items 1, 13, 14 and 16"
same,symptoms related to the depression,[1],improved the symptoms related to the depression
